Reference: patent US20100331315A1, “RHODANINES AND RELATED HETEROCYCLES AS KINASE INHIBITORS” (priority 2009, published 2010)
pIC50: −log10 of the molar value. Like-named read-outs stand apart in the source and are kept apart here.

What was measured:
recombinant human CK2 = molecular target: T1, recombinant human CK2 (Homo sapiens, UniProt P68400); assay: CK2 assay (cell-free, 33P-ATP filter plate); format: biochemical
T1 construct: purchased Upstate
Description: Modulatory activity of compounds described herein was assessed in vitro in cell-free CK2 assays by the following method.
Test compounds in aqueous solution were added at a volume of 10 microliters, to a reaction mixture comprising 10 microliters Assay Dilution Buffer (ADB; 20 mM MOPS, pH 7.2, 25 mM beta-glycerolphosphate, 5 mM EGTA, 1 mM sodium orthovanadate and 1 mM dithiothreitol), 10 microliters of substrate peptide (RRRDDDSDDD, dissolved in ADB at a concentration of 1 mM), 10 microliters of recombinant human CK2 (25 ng dissolved in ADB; Upstate). Reactions were initiated by the addition of 10 microliters of ATP Solution (90% 75 mM MgCl2, 75 micromolar ATP dissolved in ADB; 10% [γ-^33P]ATP (stock 1 mCi/100 μl; 3000 Ci/mmol (Perkin Elmer) and maintained for 10 minutes at 30 degrees C. The reactions were quenched with 100 microliters of 0.75% phosphoric acid, then transferred to and filtered through a phosphocellulose filter plate (Millipore). After washing each well 5 times with 0.75% phosphoric acid, the plate was dried under vacuum for 5 min and, following the addition of 15 ul of scintillation fluid to each well, the residual radioactivity was measured using a Wallac luminescence counter.

recombinant PIM-1 = recombinant PIM-1 (Homo sapiens, UniProt P11309); assay: PIM-1 assay (33P-ATP filter plate); format: biochemical; details: read-out: PIM1: IC50
Sequence of recombinant PIM-1 (P11309 whole entry): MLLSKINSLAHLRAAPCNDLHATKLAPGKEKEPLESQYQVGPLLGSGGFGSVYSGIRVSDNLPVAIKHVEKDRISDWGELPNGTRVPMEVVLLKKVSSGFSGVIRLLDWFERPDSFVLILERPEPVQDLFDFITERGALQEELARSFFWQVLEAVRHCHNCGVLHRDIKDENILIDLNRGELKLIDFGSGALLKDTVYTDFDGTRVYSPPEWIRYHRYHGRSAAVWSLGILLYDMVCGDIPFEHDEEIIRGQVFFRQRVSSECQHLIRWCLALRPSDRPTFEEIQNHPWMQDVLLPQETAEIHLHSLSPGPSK
Description: The following procedure was used to assay the PIM-1 kinase activity of compounds of the invention. Other methods for assaying PIM-1 and other PIM kinases, as well as methods to assay for activity against the various kinases are known in the art.
In a final reaction volume of 50 ul, recombinant PIM-1 (1 ng) was incubated with 12 mM MOPS pH 7.0, 0.4 mM EDTA, glycerol 1%, brij 35 0.002%, 2-mercaptoethanol 0.02%, BSA 0.2 mg/ml, 100 uM KKRNRTLTK, 10 mM MgAcetate, 15 uM ATP, [γ-^33P-ATP] (specific activity approx. 500 cpm/pmol), DMSO 4% and test inhibitor compound at the required concentration. The reaction was initiated by the addition of the Magnesium ATP mixture. After 40 min incubation at 23° C., the reactions were quenched by the addition of 100 ul 0.75% Phosphoric acid, and the labeled peptide collected by filtration through a phosphocellulose filter plate. The plate was washed 4 times with 0.075% phosphoric acid (100 ul per well) and then, after the addition of scintillation fluid (20 ul per well), the counts were measured by a scintillation counter.

K-562 = assay: Alamar Blue cell proliferation assay, K-562; format: cell-based; details: Homo sapiens
Description: (§1) A representative cell-proliferation assay protocol using Alamar Blue dye (stored at 4° C., use 20 ul per well) is described hereafter.
(§2) a. Split and trypsinize cells.
(§3) b. Count cells using hemocytometer.
(§4) c. Plate 4,000-5,000 cells per well in 100 μl of medium and seed into a 96-well plate according to the following plate layout. Add cell culture medium only to wells B10 to B12. Wells B1 to B9 have cells but no compound added.
(§5) d. Add 100 μl of 2× drug dilution to each well in a concentration shown in the plate layout above. At the same time, add 100 μl of media into the control wells (wells B10 to B12). Total volume is 200 μl/well.
(§6) e. Incubate four (4) days at 37° C., 5% CO2 in a humidified incubator.
(§7) f. Add 20 μl Alamar Blue reagent to each well.
(§8) g. Incubate for four (4) hours at 37° C., 5% CO2 in a humidified incubator.
(§9) h. Record fluorescence at an excitation wavelength of 544 nm and emission wavelength of 590 nm using a microplate reader.
(§10) In the assays, cells are cultured with a test compound for approximately four days, the dye is then added to the cells and fluorescence of […] dye is detected after approximately four hours. Different types of cells can be utilized in the assays (e.g., HCT-116 human colorectal carcinoma cells, PC-3 human prostatic cancer cells and MiaPaca human pancreatic carcinoma cells).

MV-4-11 = assay: Alamar Blue cell proliferation assay, MV-4-11; format: cell-based; details: Homo sapiens
Description: as §1, §2, §3, §4, §5, §6, §7, §8, §9, §10

MDAMB231 = assay: Alamar Blue cell proliferation assay, MDAMB231; format: cell-based; details: Homo sapiens
Description: as §1, §2, §3, §4, §5, §6, §7, §8, §9, §10

[1] = tested on: MiaPaca human pancreatic carcinoma cells; assay: Alamar Blue cell proliferation assay, MiaPaCa; format: cell-based
Description: as §1, §2, §3, §4, §5, §6, §7, §8, §9, §10

[2] = tested on: PC-3 human prostatic cancer cells; assay: Alamar Blue cell proliferation assay, PC3; format: cell-based
Description: as §1, §2, §3, §4, §5, §6, §7, §8, §9, §10

[3] = K562, K-562, Table 1, read-out: AB: K-562 IC50
[4] = MV4-11, MV-4-11, Table 1, read-out: AB: MV-4-11 IC50
[5] = MDA-MB-231, MDAMB231, Table 1, read-out: AB: MDAMB231 IC50
[6] = MIA PaCa-2, Table 1, read-out: AB: MiaPaCa IC50
[7] = PC-3, PC3, Table 1, read-out: AB: PC3
[8] = PC3, Table 4, read-out: AB: PC3 IC50
[9] = K562, K-562, Table 4, read-out: AB: K-562 IC50

T1 sequence (P68400 whole entry): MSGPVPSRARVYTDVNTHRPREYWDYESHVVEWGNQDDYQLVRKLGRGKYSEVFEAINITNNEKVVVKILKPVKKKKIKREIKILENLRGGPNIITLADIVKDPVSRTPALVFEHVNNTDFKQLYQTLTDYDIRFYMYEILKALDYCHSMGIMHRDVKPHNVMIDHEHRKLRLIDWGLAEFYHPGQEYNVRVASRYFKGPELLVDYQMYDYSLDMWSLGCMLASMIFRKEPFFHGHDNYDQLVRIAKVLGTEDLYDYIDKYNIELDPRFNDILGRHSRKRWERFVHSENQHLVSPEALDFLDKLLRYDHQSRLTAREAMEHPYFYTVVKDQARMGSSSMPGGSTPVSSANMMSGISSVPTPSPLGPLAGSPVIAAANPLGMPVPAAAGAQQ
T1 sequence (P67870 whole entry partner): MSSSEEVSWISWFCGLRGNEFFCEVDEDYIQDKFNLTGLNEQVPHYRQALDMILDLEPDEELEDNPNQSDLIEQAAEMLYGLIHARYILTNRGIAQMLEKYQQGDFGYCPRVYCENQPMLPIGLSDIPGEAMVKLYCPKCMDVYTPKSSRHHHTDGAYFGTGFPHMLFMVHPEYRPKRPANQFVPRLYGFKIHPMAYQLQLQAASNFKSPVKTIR

Row | Structure (SMILES) | pIC50 (recombinant human CK2; Table 1) | pIC50 (recombinant PIM-1; Table 1) | pIC50 (K-562; [3]) | pIC50 (MV-4-11; [4]) | pIC50 (MDAMB231; [5]) | pIC50 [1, 6] | pIC50 [2, 7] | further results
1 | NS(=O)(=O)c1ccc(-c2ccc(/C=C3\NC(=O)NC3=O)o2)cc1 | – | – | – | – | – | – | – | pIC50 (recombinant human CK2; Table 3): 6.34; pIC50 (recombinant PIM-1; Table 3): 6.56
2 | CN1CCCN(C(=O)c2cccc(-c3ccc(/C=C4/NC(=O)NC4=O)o3)c2)CC1 | – | – | – | – | – | – | – | pIC50 (recombinant human CK2; Table 3): < 5.30; pIC50 (recombinant PIM-1; Table 3): < 5.30
3 | O=C1NC(=S)S/C1=C\c1ccc(-c2cccc(C(=O)N3CCC[C@H]3CO)c2)o1 | 7.43 | 7.92 | < 5.00 | 6.76 | < 5.00 | < 5.00 | < 4.52 | –
4 | O=C1NC(=S)S/C1=C\c1ccc(-c2cccc(C(=O)NN3CCCCC3)c2)o1 | 6.26 | 7.07 | < 5.00 | < 5.00 | < 5.00 | < 5.00 | < 4.52 | –
5 | Cn1cncc1CNC(=O)c1ccc(-c2ccc(/C=C3\SC(=S)NC3=O)o2)cc1 | 6.97 | 7.46 | < 5.00 | < 5.00 | < 5.00 | < 5.00 | < 4.52 | –
6 | CC(C)N1CCN(C(=O)c2ccc(-c3ccc(/C=C4\SC(=S)NC4=O)o3)cc2)CC1 | – | 7.17 | < 5.00 | < 5.00 | < 5.00 | < 5.00 | < 4.52 | –
7 | CN1CCCN(c2cncc(-c3ccc(/C=C4\SC(=S)NC4=O)o3)n2)CC1 | – | – | – | – | – | – | – | pIC50 (recombinant human CK2; Table 4): 7.74; pIC50 (recombinant PIM-1; Table 4): 6.85; pIC50 [2, 8]: < 5.00
8 | NCCN1CCN(C(=O)c2ccc(-c3ccc(/C=C4\SC(=S)NC4=O)o3)cc2)CC1 | 6.71 | 7.72 | < 5.00 | < 6.00 | < 5.00 | < 5.00 | < 4.52 | –
9 | CN1CCCN(c2cncc(-c3ccc(/C=C4\SC(=O)NC4=O)o3)n2)CC1 | – | – | – | – | – | – | – | pIC50 (recombinant human CK2; Table 4): 8.22; pIC50 (recombinant PIM-1; Table 4): 7.66; pIC50 (K-562; [9]): 6.84; pIC50 [2, 8]: < 5.00
10 | CN1CCCN(C(=O)c2ccc(-c3ccc(/C=C4/SC(=O)NC4=O)o3)cc2)CC1 | – | – | – | – | – | – | – | pIC50 (recombinant human CK2; Table 2): 6.37; pIC50 (recombinant PIM-1; Table 2): 6.58; pIC50 (K-562; K562, K-562, Table 2, read-out: AB: K-562 IC50): < 5.00; pIC50 (MV-4-11; MV4-11, MV-4-11, Table 2, read-out: AB: MV-4-11 IC50): < 6.00; pIC50 (MDAMB231; MDA-MB-231, MDAMB231, Table 2, read-out: AB: MDAMB231 IC50): < 5.00; pIC50 ([1]; MIA PaCa-2, Table 2, read-out: AB: MiaPaCa IC50): < 5.00; pIC50 ([2]; PC3, Table 2, read-out: AB: PC3 IC50): < 4.52
11 | CN1C(=O)NC(=O)/C1=C\c1ccc(-c2ccc(C(=O)O)cc2)o1 | – | – | – | – | – | – | – | pIC50 (recombinant human CK2; Table 3): 6.67; pIC50 (recombinant PIM-1; Table 3): 6.08
12 | O=C1NC(=S)S/C1=C\c1ccc(-c2ccc(Cl)c(C(=O)O)c2)o1 | 6.97 | 6.65 | < 5.00 | < 5.00 | < 5.00 | < 5.00 | – | –
13 | COC(=O)c1cccc(-c2ccc(CC3SC(=S)NC3=O)o2)c1 (centres unmarked) | 8.52 | 8.22 | < 5.00 | < 5.00 | < 5.00 | < 5.00 | – | –
14 | NS(=O)(=O)c1ccc(-c2ccc(/C=C3\SC(=S)NC3=O)o2)cc1 | 8.05 | 7.82 | – | – | – | – | < 5.00 | –
15 | CN1C(=O)NC(=O)/C1=C\c1ccc(-c2cccc(C(=O)O)c2)o1 | – | – | – | – | – | – | – | pIC50 (recombinant human CK2; Table 3): 5.84; pIC50 (recombinant PIM-1; Table 3): < 5.30
16 | CN1CCCN(c2cncc(-c3cccc(/C=C4\SC(=O)NC4=O)c3)n2)CC1 | – | – | – | – | – | – | – | pIC50 (recombinant human CK2; Table 4): 8.52; pIC50 (recombinant PIM-1; Table 4): 9.00; pIC50 (K-562; [9]): 7.12; pIC50 [2, 8]: 5.02
17 | O=C1NC(=O)/C(=C/c2ccc(-c3cccc(C(=O)O)c3)o2)S1 | – | – | – | – | – | – | – | pIC50 (recombinant human CK2; Table 2): 6.93; pIC50 (recombinant PIM-1; Table 2): < 5.30
